According to publication PMC10685318, “Trans-cyclosulfamidate mannose-configured cyclitol allows isoform-dependent inhibition of GH47 α-D-mannosidases through a bump–hole strategy” (Chemical Science, 2023):

Experiments:
[1] = tested on: GH47 model enzyme from Caulobacter K31 strain; experiment: Crystal soaks with WT GH47; format: binding
MAN2A1 = molecular target: T1, MAN2A1 (Homo sapiens, UniProt Q16706); experiment: 4-MU-α-man activity assay in overexpressed cell lysates; format: biochemical
T1 construct: expressed in transfected cells
T1 sequence (Q16706 1-1144): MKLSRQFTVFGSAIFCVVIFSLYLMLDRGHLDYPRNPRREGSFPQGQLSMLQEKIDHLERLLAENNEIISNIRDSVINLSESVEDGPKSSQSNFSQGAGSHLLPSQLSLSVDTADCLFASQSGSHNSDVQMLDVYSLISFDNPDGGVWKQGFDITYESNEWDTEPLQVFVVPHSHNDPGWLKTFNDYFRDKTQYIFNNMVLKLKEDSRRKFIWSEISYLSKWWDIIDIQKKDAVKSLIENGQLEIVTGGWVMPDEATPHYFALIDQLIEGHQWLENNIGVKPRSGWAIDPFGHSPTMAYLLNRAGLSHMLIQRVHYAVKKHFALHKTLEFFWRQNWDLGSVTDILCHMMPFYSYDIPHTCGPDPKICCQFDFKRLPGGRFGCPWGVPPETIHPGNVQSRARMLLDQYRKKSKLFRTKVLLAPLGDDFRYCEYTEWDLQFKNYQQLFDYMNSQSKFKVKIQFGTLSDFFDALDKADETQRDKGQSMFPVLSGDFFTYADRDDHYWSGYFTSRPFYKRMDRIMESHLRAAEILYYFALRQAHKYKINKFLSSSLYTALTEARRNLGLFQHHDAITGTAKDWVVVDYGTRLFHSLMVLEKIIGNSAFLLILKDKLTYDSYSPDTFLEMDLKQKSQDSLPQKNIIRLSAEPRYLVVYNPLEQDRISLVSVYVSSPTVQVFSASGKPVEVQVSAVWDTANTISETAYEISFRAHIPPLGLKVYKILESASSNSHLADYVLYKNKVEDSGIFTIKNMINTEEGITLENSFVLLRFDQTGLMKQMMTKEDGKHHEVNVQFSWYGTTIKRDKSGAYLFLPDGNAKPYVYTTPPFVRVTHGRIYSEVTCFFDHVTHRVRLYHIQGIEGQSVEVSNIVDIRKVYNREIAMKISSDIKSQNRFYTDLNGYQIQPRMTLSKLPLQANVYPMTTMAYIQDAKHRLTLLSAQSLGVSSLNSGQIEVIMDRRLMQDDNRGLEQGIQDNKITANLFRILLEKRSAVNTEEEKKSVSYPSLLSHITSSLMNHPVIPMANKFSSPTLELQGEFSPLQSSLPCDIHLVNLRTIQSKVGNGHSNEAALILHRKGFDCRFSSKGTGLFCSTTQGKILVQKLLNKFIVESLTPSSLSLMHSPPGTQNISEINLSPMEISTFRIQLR

O=S1(=O)N[C@@H]2[C@@H](O)[C@@H](O)[C@H](O)[C@@H](CO)[C@H]2O1 [compound 6, 1,6-trans-manno-cyclosulfamidate]
binding in crystal soaks [1]: no binding
activity when the buffer was enriched with CoCl2 (MAN2A1; CoCl2): no activity
IC50 (MAN2A1; Zn2+): > 1000 µM
